# Test results: article PMC7377239, “Cardiovascular Effects of Polychlorinated Biphenyls and Their Major Metabolites” (Environmental Health Perspectives, 2020)
# Where two headings read alike, the source gives them in different places.
# Legend:
# HUVECs [1] = assay: Tube formation (tubulogenesis) assay in HUVECs, 18 h; type: cell-based, human; details: for minimal effective concentration / activity at 0.01 µM / activity at 0.1 µM / activity at 1 µM / activity at 10 µM / activity at 100 µM: Homo sapiens, HUVEC, 18 h; for activity at 1 µM: concentration 1.00 µM; for activity at 10 µM: concentration 10.00 µM
# How it was run: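 HUVECs (passage 1–5) seeded on reduced-growth-factor basement membrane and exposed to compounds overnight at 37°C, 5% CO2, in 2× maintenance medium with 12.5 ng/mL VEGF; 0.5% DMSO vehicle. Calcein AM-stained tube networks imaged and analysed; vehicle-normalized readouts fit to four-parameter logistic, POD set at one SD of vehicle means.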
# HUVECs [2] = assay: High-content imaging cytotoxicity in HUVECs, 24 h; type: cell-based, human; details: for minimal effective concentration / viability at 0.01 µM / activity at 0.01 µM / activity at 0.1 µM / viability at 1 µM / activity at 1 µM / viability at 10 µM / activity at 10 µM / viability at 100 µM / activity at 100 µM: Homo sapiens, HUVEC, 24 h; for viability at 0.01 µM / activity at 0.01 µM: concentration 0.01 µM; for viability at 1 µM / activity at 1 µM: concentration 1.00 µM; for viability at 10 µM / activity at 10 µM: concentration 10.00 µM; for viability at 100 µM / activity at 100 µM: concentration 100.00 µM
# How it was run: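 Point-of-departure values derive from four-parameter logistic fits of vehicle-normalized imaging phenotypes (Hoechst 33342, MitoTracker Orange, calcein AM). The fits follow 24 h exposure of HUVEC monolayers at 37°C and 5% CO2, with a top tested concentration of 100μM.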
# [3] = HUVECs tube formation, 0.00 µM = 100.00, read-out: huvec.mtl.18hr
# [4] = HUVECs tube formation, 0.00 µM = 100.00, read-out: huvec.tlps.18hr
# [5] = HUVECs tube formation, 0.00 µM = 100.00, read-out: huvec.tta.18hr
# [6] = HUVECs tube formation, 0.00 µM = 100.00, read-out: huvec.ttl.18hr
# [7] = HUVECs, 24 hr, 0.00 µM = 100.00, read-out: huvec.cyto.24hr
# [8] = HUVECs, 24 hr, 0.00 µM = 100.00, read-out: huvec.mito.24hr
# [9] = HUVECs, 24 hr, 0.00 µM = 100.00, read-out: huvec.mitoint.24hr
# [10] = HUVECs, 24 hr, 0.00 µM = 100.00, read-out: huvec.nma.24hr
# [11] = HUVECs, 24 hrs, 0.00 µM = 100.00, read-out: huvec.tc.24hrs
smiles,measurement,setting,value
"Clc1ccc(Cl)c(-c2c(Cl)ccc(Cl)c2Cl)c1Cl [(+)-PCB 136, 2,2′,3,3′,6,6′-hexachlorobiphenyl]",huvec.tta.18hr,"HUVECs [1]; HUVECs tube formation, concentration 0.01 µM, 0.00 µM = 100.00",108.86
same,huvec.tlps.18hr,"HUVECs [1]; HUVECs tube formation, concentration 0.10 µM, 0.00 µM = 100.00",71.77
same,huvec.tta.18hr,"HUVECs [1]; HUVECs tube formation, concentration 100.00 µM, 0.00 µM = 100.00",92.04
same,minimal effective concentration,"HUVECs [1]; tube formation mtl, read-out: POD huvec.mtl.18hr",13.4 µM
same,minimal effective concentration,"HUVECs [1]; tube formation tta, read-out: POD huvec.tta.18hr",100 µM
same,minimal effective concentration,"HUVECs [1]; tube formation ttl, read-out: POD huvec.ttl.18hr",100 µM
same,minimal effective concentration,"HUVECs [1]; HUVECs tube formation, MAX 100.00, read-out: huvec.mtl.18hr POD",13.4 µM
same,minimal effective concentration,"HUVECs [1]; HUVECs tube formation, MAX 100.00, read-out: huvec.tta.18hr POD",100 µM
same,minimal effective concentration,"HUVECs [1]; HUVECs tube formation, MAX 100.00, read-out: huvec.ttl.18hr POD",100 µM
same,activity at 0.01 µM,"HUVECs [1]; HUVECs tube formation, concentration 0.01 µM, 0.00 µM = 100.00, read-out: huvec.mtl.18hr",92.2%
same,activity at 0.01 µM,"HUVECs [1]; HUVECs tube formation, concentration 0.01 µM, 0.00 µM = 100.00, read-out: huvec.tlps.18hr",82.7%
same,activity at 0.01 µM,"HUVECs [1]; HUVECs tube formation, concentration 0.01 µM, 0.00 µM = 100.00, read-out: huvec.ttl.18hr",105%
same,activity at 0.1 µM,"HUVECs [1]; HUVECs tube formation, concentration 0.10 µM, 0.00 µM = 100.00, read-out: huvec.mtl.18hr",93.1%
same,activity at 0.1 µM,"HUVECs [1]; HUVECs tube formation, concentration 0.10 µM, 0.00 µM = 100.00, read-out: huvec.tta.18hr",107%
same,activity at 0.1 µM,"HUVECs [1]; HUVECs tube formation, concentration 0.10 µM, 0.00 µM = 100.00, read-out: huvec.ttl.18hr",105%
same,activity at 1 µM,HUVECs [1]; [3],96.3%
same,activity at 1 µM,HUVECs [1]; [4],98.7%
same,activity at 1 µM,HUVECs [1]; [5],102%
same,activity at 1 µM,HUVECs [1]; [6],99.6%
same,activity at 10 µM,HUVECs [1]; [3],92.5%
same,activity at 10 µM,HUVECs [1]; [4],100%
same,activity at 10 µM,HUVECs [1]; [5],112%
same,activity at 10 µM,HUVECs [1]; [6],104%
same,activity at 100 µM,"HUVECs [1]; HUVECs tube formation, concentration 100.00 µM, 0.00 µM = 100.00, read-out: huvec.mtl.18hr",64.5%
same,activity at 100 µM,"HUVECs [1]; HUVECs tube formation, concentration 100.00 µM, 0.00 µM = 100.00, read-out: huvec.tlps.18hr",73.3%
same,activity at 100 µM,"HUVECs [1]; HUVECs tube formation, concentration 100.00 µM, 0.00 µM = 100.00, read-out: huvec.ttl.18hr",83.9%
same,huvec.mito.24hr,"HUVECs [2]; HUVECs, 24 hr, concentration 0.10 µM, 0.00 µM = 100.00",96.64
same,minimal effective concentration,"HUVECs [2]; mitoint, 24 hr, read-out: POD huvec.mitoint.24hr",0.64 µM
same,minimal effective concentration,"HUVECs [2]; nma, 24 hr, read-out: POD huvec.nma.24hr",1.82 µM
same,viability at 0.01 µM,HUVECs [2]; [7],89.2%
same,activity at 0.01 µM,HUVECs [2]; [8],87.1%
same,activity at 0.01 µM,HUVECs [2]; [9],81.7%
same,activity at 0.01 µM,HUVECs [2]; [10],95.8%
same,activity at 0.1 µM,"HUVECs [2]; HUVECs, 24 hr, concentration 0.10 µM, 0.00 µM = 100.00, read-out: huvec.mitoint.24hr",80.9%
same,activity at 0.1 µM,"HUVECs [2]; HUVECs, 24 hr, concentration 0.10 µM, 0.00 µM = 100.00, read-out: huvec.nma.24hr",93.4%
same,viability at 1 µM,HUVECs [2]; [7],81.4%
same,activity at 1 µM,HUVECs [2]; [8],80.3%
same,activity at 1 µM,HUVECs [2]; [9],78.8%
same,activity at 1 µM,HUVECs [2]; [10],99.5%
same,viability at 10 µM,HUVECs [2]; [7],65.2%
same,activity at 10 µM,HUVECs [2]; [8],30.4%
same,activity at 10 µM,HUVECs [2]; [9],9.57%
same,activity at 10 µM,HUVECs [2]; [10],50.8%
same,viability at 100 µM,HUVECs [2]; [7],40%
same,activity at 100 µM,HUVECs [2]; [8],25.7%
same,activity at 100 µM,HUVECs [2]; [9],14.8%
same,activity at 100 µM,HUVECs [2]; [10],75.7%
same,minimal effective concentration,"HUVECs [2]; HUVECs, 24 hr, MAX 100.00, read-out: huvec.mitoint.24hr POD",0.64 µM
same,minimal effective concentration,"HUVECs [2]; HUVECs, 24 hr, MAX 100.00, read-out: huvec.nma.24hr POD",1.82 µM
same,viability at 0.01 µM,HUVECs [2]; [11],89.2%
same,viability at 1 µM,HUVECs [2]; [11],81.4%
same,viability at 10 µM,HUVECs [2]; [11],65.3%
same,viability at 100 µM,HUVECs [2]; [11],40.2%
